Experimental data from publication PMC10747733, “N-Substituted 2-(Benzenosulfonyl)-1-Carbotioamide Derivatives Exert Antimicrobial and Cytotoxic Effects via Aldehyde Dehydrogenase Pathway: Synthesis, In Silico and In Vitro Studies” (Pharmaceuticals, 2023).
Converted amounts (≈) assume the structure as drawn.

Key:
[1] = test system: Bordetella bronchiseptica ATCC 4617; experiment: Broth microdilution antimicrobial activity; format: cell-based; conditions: for MBC / MIC: ATCC4617
Description: (§1) Reference strains of microorganisms that came from American Type Culture Collection (ATCC) (Manassas, VA, USA) were used for this study. The representative Gram-positive bacteria were as follows: Staphylococcus aureus ATCC 25923, Staphylococcus aureus ATCC 29213, Staphylococcus aureus ATCC 43300, Staphylococcus epidermidis ATCC 12228, Enterococcus faecalis ATCC 29212, Micrococcus luteus ATCC 10240, Bacillus subtilis ATCC 6633 and Bacillus cereus ATCC 10876. While, those of Gram-negative bacteria were as follows: Bordetella bronchiseptica ATCC 4617, Escherichia coli ATCC 25922, Klebsiella pneumoniae ATCC 13883, Proteus mirabilis ATCC 12453, Salmonella Typhimurium ATCC 14028 and Pseudomonas aeruginosa ATCC 9027. Moreover, the following fungi belonging to yeasts were used: Candida albicans ATCC 10231, Candida albicans ATCC 2091, Candida parapsilosis ATCC 22019, Candida glabrata ATCC 90030 and Candida krusei ATCC 14243.
(§2) The new compounds WZ1–WZ4 were assayed for both antibacterial and antifungal activity using the broth microdilution method in accordance with the European Committee on Antimicrobial Susceptibility Testing (EUCAST) and Clinical and Laboratory Standards Institute (CLSI) guidelines. The microorganisms were grown at 35 °C for 18–24 h on appropriate media (nutrient agar and Sabouraud for bacteria and fungi, respectively) (BioMaxima S.A., Lublin, Poland). Next, microbial suspensions with an optical density of 0.5 McFarland standard scale (in sterile 0.85% NaCl) were prepared. In turn, the tested compounds were initially diluted at 50 mg/mL in dimethyl sulfoxide (DMSO) and the broth microdilution method was used to assess their minimum inhibitory concentrations (MICs). For these studies, selective broth Mueller-Hinton (MH) (BioMaxima S.A., Lublin, Poland) and RPMI (Roswell Park Memorial Institute) 1640 with MOPS (3-(N-Morpholino)propanesulfonic acid) (Sigma-Aldrich Chemicals, St. Louis, MO, USA) were used for bacteria and fungi, respectively. The antimicrobial effect of compounds WZ1–WZ4 was determined in the concentration range from 2000 to 0.98 µg/mL.
(§3) Then, the microbial suspensions were introduced into each well of the microplate and incubated for 18–24 h at 35 °C. […] The reference drugs ciprofloxacin or vancomycin (against bacteria) and nystatin (against fungi) (Sigma-Aldrich Chemicals, St. Louis, MO, USA) were also used. Next, the values of the minimum bactericidal concentration (MBC) and minimum fungicidal concentration (MFC) of WZ1–WZ4 were assessed. For this purpose, the cultures from each MIC determination well were transferred to a suitable solid medium and incubated under appropriate conditions. The lowest concentrations of compounds without microbial growth were read as MBC or MFC. The studies were performed in triplicate and representative data were gathered.
(§4) In turn, the MBC/MIC or MFC/MIC ratios were used to assess bactericidal/fungicidal (MBC/MIC or MFC/MIC ≤ 4) and bacteriostatic/fungistatic (MBC/MIC or MFC/MIC > 4) effect of these compounds [93].

[2] = test system: Candida albicans ATCC 10231; experiment: Broth microdilution antimicrobial activity; format: cell-based; conditions: for MFC: ATCC10231, read-out: MFC; for MIC: ATCC10231, read-out: MIC
Description: as §1, §2, §3, §4

[3] = test system: Candida albicans ATCC 2091; experiment: Broth microdilution antimicrobial activity; format: cell-based; conditions: for MFC: ATCC2091, read-out: MFC; for MIC: ATCC2091, read-out: MIC
Description: as §1, §2, §3, §4

[4] = test system: Candida glabrata ATCC 90030; experiment: Broth microdilution antimicrobial activity; format: cell-based; conditions: for MFC / MIC: Nakaseomyces glabratus; for MFC: ATCC90030, read-out: MFC; for MIC: ATCC90030, read-out: MIC
Description: as §1, §2, §3, §4

[5] = test system: Candida parapsilosis ATCC 22019; experiment: Broth microdilution antimicrobial activity; format: cell-based; conditions: for MFC / MIC: Lodderomyces parapsilosis; for MFC: ATCC22019, read-out: MFC; for MIC: ATCC22019, read-out: MIC
Description: as §1, §2, §3, §4

[6] = test system: Enterococcus faecalis ATCC 29212; experiment: Broth microdilution antimicrobial activity; format: cell-based; conditions: Enterococcus faecalis ATCC 29212; for MBC / MIC: ATCC29212; for MBC: read-out: MBC; for MIC: read-out: MIC
Description: as §1, §2, §3, §4

[7] = test system: Escherichia coli ATCC 25922; experiment: Broth microdilution antimicrobial activity; format: cell-based; conditions: for MBC / MIC: ATCC25922
Description: as §1, §2, §3, §4

[8] = test system: Klebsiella pneumoniae ATCC 13883; experiment: Broth microdilution antimicrobial activity; format: cell-based; conditions: for MBC / MIC: ATCC13883
Description: as §1, §2, §3, §4

[9] = test system: Proteus mirabilis ATCC 12453; experiment: Broth microdilution antimicrobial activity; format: cell-based; conditions: for MBC / MIC: ATCC12453
Description: as §1, §2, §3, §4

[10] = test system: Staphylococcus aureus ATCC 25923; experiment: Broth microdilution antimicrobial activity; format: cell-based; conditions: for MBC / MIC: ATCC25923
Description: as §1, §2, §3, §4

[11] = test system: Staphylococcus aureus ATCC 43300; experiment: Broth microdilution antimicrobial activity; format: cell-based; conditions: Staphylococcus aureus ATCC 43300; for MBC / MIC: ATCC43300
Description: as §1, §2, §3, §4

in vitro = format: cell-based, sheep; conditions: sheep
Description: The toxicity of WZ1–WZ4 compounds towards red blood cells was tested using the erythrocyte lysis assay (ELA). Erythrocytes from fresh sheep blood (BioMaxima S.A., Poland) were centrifuged and washed with 0.85% NaCl. Next, 100 μL of a 2% suspension of red blood cells in physiological saline was added to the wells of microtiter plate. The double dilutions of compounds WZ1–WZ4 were prepared in the range of 2000–15.62 μg/mL. Appropriate controls were used to assess the hemolytic potential of tested compounds, i.e., 100% lysis of erythrocytes using 4% Triton X-100 (Pol-Aura, Różnowo, Poland) and 0% lysis in saline solution. Next, all sample plates were incubated (1 h at 37 °C), centrifuged for 10 min to separate unlysed red blood cells, and the supernatant was placed in a new plate. The ELA is a biological test by which the lytic response can be measured spectrophotometrically (at a wavelength of 450 nm) by the amount of hemoglobin released. The hemolysis percentage was calculated according to the following equation:(1) % Hemolysis = A450 of test compound treated sample − A450 of buffer treated sample/A450 of 4% Triton X100 treated samples − A450 of buffer treated sample × 100

Candida spp. = experiment: Broth microdilution, summary over reference Candida spp.; format: cell-based
Description: as §1, §2, §3, §4

O=S(=O)(NNC(=S)NC1CCCCC1)c1ccccc1 [WZ1, 2-(Benzenesulfonyl)-N-Cyclohexylhydrazine-1-Carbothioamide]
MBC/MIC [1]: > 1
MBC [1]: > 2000 µg/mL
MIC [1]: > 2000 µg/mL
MFC/MIC [2]: > 1
MFC [2]: > 2000 µg/mL
MIC [2]: > 2000 µg/mL
MFC/MIC [3]: > 1
MFC [3]: > 2000 µg/mL
MIC [3]: > 2000 µg/mL
MFC/MIC [4]: > 1
MFC [4]: > 2000 µg/mL
MIC [4]: > 2000 µg/mL
MFC/MIC [5]: > 1
MFC [5]: > 2000 µg/mL
MIC [5]: > 2000 µg/mL
MBC [6]: > 2000 µg/mL
MIC [6]: 2000 µg/mL (≈ 6.38 mM)
MBC/MIC [6]: > 1
MBC/MIC [7]: > 1
MBC [7]: > 2000 µg/mL
MIC [7]: > 2000 µg/mL
MBC/MIC [8]: > 1
MBC [8]: > 2000 µg/mL
MIC [8]: > 2000 µg/mL
MBC/MIC [9]: > 1
MBC [9]: > 2000 µg/mL
MIC [9]: > 2000 µg/mL
MBC/MIC [10]: > 4
MBC [10]: > 2000 µg/mL
MIC [10]: 500 µg/mL (≈ 1.6 mM)
MBC [11]: > 2000 µg/mL
MIC [11]: 500 µg/mL (≈ 1.6 mM)
MBC/MIC [11]: > 4
hemolysis at 1 h, 15.62 μg/mL (in vitro): 0%
hemolysis at 1 h, 31.25 μg/mL (in vitro): 0%
hemolysis at 1 h, 62.5 μg/mL (in vitro): 0%
hemolysis at 1 h, 125 μg/mL (in vitro): 2.11%
hemolysis at 1 h, 250 μg/mL (in vitro): 7.89%
hemolysis at 1 h, 500 μg/mL (in vitro): 14.2%
hemolysis at 1 h, 1000 μg/mL (in vitro): 18.4%
hemolysis at 1 h, 2000 μg/mL (in vitro): 34.7%
anticandidal bioactivity class (Candida spp.; reference Candida spp.): no anticandidal bioactivity

CCCCCCNC(=S)NNS(=O)(=O)c1ccccc1 [WZ3, 2-(Benzenesulfonyl)-N-Hexylhydrazine-1-Carbothioamide]
MBC/MIC [1]: > 4
MBC [1]: > 2000 µg/mL
MIC [1]: 500 µg/mL (≈ 1.58 mM)
MFC/MIC [2]: 2
MFC [2]: 1000 µg/mL (≈ 3.17 mM)
MIC [2]: 500 µg/mL (≈ 1.58 mM)
MFC/MIC [3]: 2
MFC [3]: 1000 µg/mL (≈ 3.17 mM)
MIC [3]: 500 µg/mL (≈ 1.58 mM)
MFC/MIC [4]: 1
MFC [4]: 2000 µg/mL (≈ 6.34 mM)
MIC [4]: 2000 µg/mL (≈ 6.34 mM)
MFC/MIC [5]: 1
MFC [5]: 2000 µg/mL (≈ 6.34 mM)
MIC [5]: 2000 µg/mL (≈ 6.34 mM)
MBC [6]: > 2000 µg/mL
MIC [6]: 500 µg/mL (≈ 1.58 mM)
MBC/MIC [6]: > 4
MBC/MIC [7]: > 4
MBC [7]: > 2000 µg/mL
MIC [7]: 500 µg/mL (≈ 1.58 mM)
MBC/MIC [8]: > 2
MBC [8]: > 2000 µg/mL
MIC [8]: 1000 µg/mL (≈ 3.17 mM)
MBC/MIC [9]: > 2
MBC [9]: > 2000 µg/mL
MIC [9]: 1000 µg/mL (≈ 3.17 mM)
MBC/MIC [10]: 4
MBC [10]: 1000 µg/mL (≈ 3.17 mM)
MIC [10]: 250 µg/mL (≈ 0.792 mM)
MBC [11]: 500 µg/mL (≈ 1.58 mM)
MIC [11]: 250 µg/mL (≈ 0.792 mM)
MBC/MIC [11]: 2
hemolysis at 1 h, 15.62 μg/mL (in vitro): 0%
hemolysis at 1 h, 31.25 μg/mL (in vitro): 0%
hemolysis at 1 h, 62.5 μg/mL (in vitro): 0%
hemolysis at 1 h, 125 μg/mL (in vitro): 1.14%
hemolysis at 1 h, 250 μg/mL (in vitro): 11.4%
hemolysis at 1 h, 500 μg/mL (in vitro): 18.2%
hemolysis at 1 h, 1000 μg/mL (in vitro): 43.2%
hemolysis at 1 h, 2000 μg/mL (in vitro): 85.8%
MIC (Candida spp.; C. albicans and C. krusei): 250 to 500 µg/mL (≈ 0.792 to 1.58 mM)
MFC (Candida spp.; Candida, yeasts): 500 to 2000 µg/mL (≈ 1.58 to 6.34 mM)
MIC (Candida spp.; reference Candida spp.): 125 to 2000 µg/mL (≈ 0.396 to 6.34 mM)
MFC/MIC (Candida spp.; reference yeasts, except WZ4 towards C. parapsilosis): 1–4
